Source: US4910021A, “Targeted enternal delivery system” (priority 1985, dated 1990)
Read-outs that look alike come from different tables or passages of the source.

Key:
[1] = tested on: blood glucose; test: Hypoglycemia effect in rats after oral (coated capsules) or intraperitoneal insulin; format: in vivo, rat (Hebrew University strain male rats); design: AUC (area under the % glucose reduction versus time curve): unit not given beside the values; conditions: i.p., 4 iu, 15 iu kg^-1, rats
[2] = rectal, dogs, cited from earlier work
[3] = tested on: rats; conditions: intrajejunal injection in presence of Cetamacrogol 1000, rats; cited from earlier work

## insulin: porcine insulin Leo Neutral 100 iu ml^-1 (Nordisk Gentofte); i.p. 4 iu neutral insulin
[1]
  AUC (area under the % glucose reduction versus time curve): 258
  Cmax (maximum % glucose reduction): 58%
  tmax (time of the maximum effect): 2 h
[2]; before improvement by post-administration of promoter
  bioavailability: 19.4%
[2]; with post-administration of promoter (enamine)
  bioavailability: 38.2%
[3]
  hypoglycemia: significant hypoglycemia
